Earlier results, collected in patent publication US20040167415A1, “Method and system for prevention of radiocontrast nephropathy” (PLC Systems Inc., priority 2003, published 2004).

Legend:
[1] = 70 kg adult patient; according to the manufacturer Nycomed Amersham
[2] = in 12 hours; healthy people; Edelson et al, J Pharm Sci 1984

total volume of distribution [1]: approximately 18 liters | contrast eliminated from the body in urine by kidneys [2]: 90%
SMILES: CC(=O)N(CC(O)CO)c1c(I)c(C(=O)NCC(O)CO)c(I)c(C(=O)NCC(O)CO)c1I (centres unmarked) [iohexol]
